The values that follow come from article PMC9343080, “Distribution- and Metabolism-Based Drug Discovery: A Potassium-Competitive Acid Blocker as a Proof of Concept” (Research, 2022).

pIC50: −log10 of the molar value. Bounds are passed on as bounds.

Data set [1] is described as follows: Metabolite identification and profiling in human liver microsomes. Type of data set: in vitro ADME. To be noted: SH-337 10 µM, 60 min incubation. On the procedure: Liver microsomes (1 mg protein/mL) were suspended in phosphate buffer (50 mM, pH 7.4) containing MgCl2 (6 mM). […] The reactions were initiated at 37°C by the addition of 1 mM NADPH and terminated at 30 min or 60 min (30 min for rat; 60 min for human). The samples were precipitated with acetonitrile at 1 : 2 and further centrifuged; the supernatants were dried with a stream of N2 gas. The residues were reconstituted with 300 μL of 10% acetonitrile/H2O (0.1% TFA) and analyzed by LC-MS/MS. The assays were pursued under the conditions provided in Supplementary Tables S4, S6, S7, and S8.
On the technique in general: Liver microsomes are a subcellular fraction often used to study metabolism.

Data set [2] is described as follows: Two-week repeat-dose toxicity test. It is filed as in vivo, SD rats. On the procedure:
For acute toxicity test: 12 SPF SD rats were randomly divided into three groups and received a single dose of SH-337 (1000 mg/kg, i.g.), and the animal tolerance was recorded within 2 hours. For two-week repeat-dose toxicity test: 20 SPF SD rats were randomly divided into two groups and received SH-337 (100, 200 mg/kg, i.g.) once daily for 14 days. SH-337 was dissolved in 0.5% CMC-Na. The body weight of the rats was recorded every 7 days. During the experiment, clinical parameters included apparent changes in the mental state, skin or fur, behavior, genitals, mucous membranes, respiration, stool consistency, glandular organ secretions, mortality, or other toxic results that were recorded. In addition, animal bodyweight and food intake were assessed once weekly over the study period. At the end of the experiment, the rats were sacrificed, and the serum hematological parameters and serum biochemistry parameters were recorded.

Data set [3] concerns the target T1, rabbit gastric H+, K+-ATPase (Oryctolagus cuniculus, UniProt P27112).
T1 construct: using rabbit gastric H^+, K^+-ATPase; from tissue; host or cells: rabbit stomach (gastric preparation; the method of preparation is not described)
The data set can be described thus: In vitro enzymatic activity assay (inorganic phosphate from ATP hydrolysis). Type of data set: biochemical. On the procedure: The in vitro enzymatic activity was calculated by measuring the inorganic phosphate produced by the hydrolysis of ATP using rabbit gastric H^+, K^+-ATPase. 0.25 μg enzyme was preincubated at 37°C for 30 min in Tris-HCl buffer (2.0 mL, 50 mM, pH 6.5) containing 5 mM MgCl2, 10 μM valinomycin, 0 or 20 mM KCl, and different concentrations of SH-337 and vonoprazan. The reaction was initiated by adding 5 μL of 5 mM ATP 2Na, and the preparation was incubated for 30 min at 37°C and halted by the addition of 100 μL of malachite green reagent (0.12% malachite green, 7.5% ammonium molybdate, and 11% tween 20 were mixed in a volume ratio of 100 : 25 : 2). H^+, K^+-ATPase activity was calculated after subtracting the enzyme activity in the absence of KCl.

Data set [4] can be described thus: log D7.4 measurement (1-octanol/PBS pH 7.4). Type of data set: physicochemical. As to the method:
Procedure for pKa and log D7.4 measurements. The pKa was determined using pH-metric Method from DMSO Stock Solution. Procedure for Log D determinations: 15 µL of stock solutions of test compounds and control compound was placed in order into their proper 96-well rack. 500 µL of PBS saturated 1-octanol was added into each vial of the cap-less Log D plate followed by the addition of 500 µL of 1-octanol saturated PBS (pH 7.4). One stir stick was added to each vial and a molded PTFE/Silicone plug was used to seal each vial. Then the Log D plate was transferred to the Eppendorf Thermomixer Comfort plate shaker and shaken at 25°C at 1,100 RPM for 1 hour. After completion of 1 hour, plugs were removed and the stir sticks were removed using a big magnet. The samples were then centrifuged at 25°C at 20,000 g for 20 minutes to separate the phases, and pipette and syringe were used to remove the upper (1-octanol) and lower (buffer) phases to the empty tubes, respectively. Aliquots of 5 µL were taken from upper phases followed by addition of 495 µL of a mixture of H2O and acetonitrile (1:1 in v/v). Vortex for 1 minute, and then aliquots of 50 µL were taken from the diluent followed by addition of 450 µL of a mixture of H2O and acetonitrile (1:1 in v/v). And aliquots of 50 µL were taken from lower phases followed by addition of 450 µL of a mixture of H2O and acetonitrile (1:1 in v/v). 200 μL of diluent was transferred to a new 96-well plate for LC-MS/MS analysis. The dilution factor was changed according to the Log D value and the LC-MS signal response. The concentrations of test compound and control compound in 1-octanol/buffer solution were evaluated by LC-MS/MS. The Log D values of the test compounds and control compound were calculated as follows: […]

T1 sequence (P27112 whole entry): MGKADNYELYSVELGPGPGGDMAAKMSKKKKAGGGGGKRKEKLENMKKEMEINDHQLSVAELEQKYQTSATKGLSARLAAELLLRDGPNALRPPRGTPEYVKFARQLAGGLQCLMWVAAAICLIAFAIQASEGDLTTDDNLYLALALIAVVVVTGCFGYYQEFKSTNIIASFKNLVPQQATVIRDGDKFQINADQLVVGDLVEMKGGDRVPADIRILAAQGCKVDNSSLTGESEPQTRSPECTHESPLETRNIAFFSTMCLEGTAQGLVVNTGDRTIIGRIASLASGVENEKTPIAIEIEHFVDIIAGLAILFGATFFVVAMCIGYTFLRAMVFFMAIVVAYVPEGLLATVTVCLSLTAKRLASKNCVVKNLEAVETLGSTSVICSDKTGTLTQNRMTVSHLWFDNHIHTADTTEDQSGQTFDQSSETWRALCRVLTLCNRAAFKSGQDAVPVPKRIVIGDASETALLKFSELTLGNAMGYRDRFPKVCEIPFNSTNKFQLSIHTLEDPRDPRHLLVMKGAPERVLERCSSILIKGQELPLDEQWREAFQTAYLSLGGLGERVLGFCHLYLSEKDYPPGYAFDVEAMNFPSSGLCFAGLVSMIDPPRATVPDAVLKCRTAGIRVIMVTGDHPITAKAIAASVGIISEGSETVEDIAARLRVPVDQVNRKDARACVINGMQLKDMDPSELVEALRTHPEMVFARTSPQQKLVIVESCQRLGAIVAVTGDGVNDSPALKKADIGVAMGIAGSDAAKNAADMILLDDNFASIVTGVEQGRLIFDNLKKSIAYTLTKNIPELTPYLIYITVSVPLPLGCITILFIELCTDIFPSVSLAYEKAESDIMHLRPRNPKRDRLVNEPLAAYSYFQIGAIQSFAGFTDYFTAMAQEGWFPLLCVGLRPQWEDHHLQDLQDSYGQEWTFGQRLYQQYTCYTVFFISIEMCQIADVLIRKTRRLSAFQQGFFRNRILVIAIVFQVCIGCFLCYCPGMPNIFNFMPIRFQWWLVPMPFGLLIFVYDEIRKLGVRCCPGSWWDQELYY
T1 sequence (P18597 whole entry partner): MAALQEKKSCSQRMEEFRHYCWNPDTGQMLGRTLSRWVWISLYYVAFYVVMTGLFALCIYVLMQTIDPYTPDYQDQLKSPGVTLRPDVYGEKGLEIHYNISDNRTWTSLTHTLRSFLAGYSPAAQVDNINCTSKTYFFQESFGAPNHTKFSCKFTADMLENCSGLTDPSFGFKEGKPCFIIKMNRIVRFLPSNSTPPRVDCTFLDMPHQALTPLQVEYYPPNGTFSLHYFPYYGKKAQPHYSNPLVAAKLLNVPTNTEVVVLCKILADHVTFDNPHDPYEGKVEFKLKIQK

Take `CNCc1cc(-c2ccc(OCC3CC3)cc2F)n(S(=O)(=O)c2cccnc2)c1.Cl.Cl` [SH-337, 1-(5-(4-(cyclopropylmethoxy)-2-fluorophenyl)-1-(pyridin-3-ylsulfonyl)-1H-pyrrol-3-yl)-N-methylmethanamine dihydrochloride]: in data set [1], the “Relative peak area, HLMs” value came out at 68.9%. In data set [2] (100 mg/kg vs. 30 mg/kg), the “NOAEL, fold higher than vonoprazan” value is recorded as 3.3 fold. Moreover, the no-observed-adverse-effect level (NOAEL) at 14 days in data set [2] (SD, rat, in vivo, po, no observed adverse effect level (NOAEL)) is no less than 100 mg/kg. For the same compound, the repeated-dose toxicity findings result in data set [2] (rats, daily oral 100 mg/kg for 2 weeks) was “no evidence of SH-337 toxicity was observed”. For the same compound, in data set [3], the pIC50 is 7.47. Also, the “fold greater enzyme inhibitory activity than vonoprazan” value in data set [3] (H+, K+-ATPase IC50, SH-337 vs. vonoprazan) worked out at 2.0 fold. The compound also had a pH-dependent lipophilicity (logD) at 1 h in data set [4] (1-octanol/PBS, pH 7.4, pH 7.4) of 1.3. Moreover, the “log D7.4” value in data set [4] (pH 7.4) came to 1.28.

Broadly, the NOAEL is the highest tested level that showed no adverse finding. As a reminder, the pIC50 is the IC50 on a negative log10 scale, so that one unit is a factor of ten. High values mean a small IC50, low ones a large IC50. Usually logD stands for the decadic logarithm of the distribution of all forms, ionised or not, between an organic phase and buffer at a given pH. A lower logD goes with a more hydrophilic compound.
